Test results from patent publication US10131652B2, “Pyrimidinyloxy benzene derivatives as herbicides” (E. I. DU PONT DE NEMOURS AND COMPANY, priority 2014, dated 2018).

Experiments:
Assay type in all cases: in vivo
[1] = test system: blackgrass (Alopecurus myosuroides); assay: Test B postemergence plant response
Summary of the method: (§1)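 Pots, loam soil + sand; postemergence treatment at 1–2 leaf stage, 2–10 cm; greenhouse ~10 d; visual injury score 0 (none) to 100 (complete control) relative to untreated controls.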

[2] = test system: galium (catchweed bedstraw, Galium aparine); assay: Test B postemergence plant response
Summary of the method: as §1

[3] = test system: chickweed (common chickweed, Stellaria media); assay: Test D postemergence plant response
Summary of the method: (§2)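 The formulated test chemicals were applied over the foliage of young potted plants (2 to 18 cm tall), which were then held under greenhouse conditions. Between days 13 and 15 each species was rated by eye versus controls, from 0 for no effect up to 100 for complete control.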

[4] = test system: kochia (Kochia scoparia); assay: Test D postemergence plant response
Summary of the method: as §2

[5] = test system: wild oat (Avena fatua); assay: Test D postemergence plant response
Summary of the method: as §2

[6] = test system: waterhemp_RES1 (ALS & Triazine resistant common waterhemp, Amaranthus rudis); assay: Test F postemergence plant response; conditions: scale 0 to 100
Protocol: (§3) At the same time, plants from these crop and weed species and also waterhemp_RES1, (ALS & Triazine resistant common waterhemp, Amaranthus rudis), and waterhemp_RES2, (ALS & HPPD resistant common waterhemp, Amaranthus rudis) were treated with postemergence applications of test chemicals formulated in the same manner. Plants ranged in height from 2 to 18 cm for postemergence treatments (1- to 4-leaf stage).
(§4) Treated plants and controls were maintained in a greenhouse for 14 to 21 days, after which time all species were compared to controls and visually evaluated. Plant response ratings, summarized in Table F, are based on a scale of 0 to 100 where 0 is no effect and 100 is complete control. A dash (-) response means no test result.

[7] = test system: waterhemp_RES2 (ALS & HPPD resistant common waterhemp, Amaranthus rudis); assay: Test F postemergence plant response; conditions: scale 0 to 100
Protocol: as §3, §4

[8] = 125 g ai/ha, postemergence, 0 to 100 scale, 0 no effect, 100 complete control
[9] = Postemergence, 500 g ai/ha, 0 to 100 scale (0 no effect, 100 complete control)
[10] = Postemergence, 31 g ai/ha, 0 to 100 scale (0 no effect, 100 complete control)
[11] = 16 g ai/ha, scale 0 to 100 (0 no effect, 100 complete control)
[12] = 31 g ai/ha, scale 0 to 100 (0 no effect, 100 complete control)
[13] = 62 g ai/ha, scale 0 to 100, 0 no effect, 100 complete control
[14] = 125 g ai/ha, scale 0 to 100, 0 no effect, 100 complete control

Row | Structure (SMILES) | Plant response rating, Blackgrass [1, 8] | Plant response rating, Blackgrass [1, 9] | Plant response rating, Galium [2, 8] | Plant response rating, Galium [2, 9] | Plant response rating, Waterhemp_RES1 ([6]; 16 g ai/ha Postemergence) | Plant response rating, Waterhemp_RES1 ([6]; 31 g ai/ha Postemergence) | Plant response rating, Waterhemp_RES1 ([6]; 62 g ai/ha Postemergence) | Plant response rating, Waterhemp_RES1 ([6]; 125 g ai/ha Postemergence) | Plant response rating, Waterhemp_RES2 ([7]; 16 g ai/ha Postemergence) | Plant response rating, Waterhemp_RES2 ([7]; 31 g ai/ha Postemergence) | Plant response rating, Waterhemp_RES2 ([7]; 62 g ai/ha Postemergence) | Plant response rating, Waterhemp_RES2 ([7]; 125 g ai/ha Postemergence) | Chickweed plant response rating [3, 12] | Plant response rating, Chickweed [3, 13] | Plant response rating, Chickweed [3, 14] | Kochia plant response rating [4, 12] | Plant response rating, Kochia [4, 13] | Plant response rating, Kochia [4, 14] | Oat, Wild plant response rating [5, 12] | Plant response rating, Oat, Wild [5, 14] | further results
1 | FC(F)c1cc(-c2ccccc2Oc2ncc(Cl)cn2)on1 [Compound 53, 5-chloro-2-[2-[3-(difluoromethyl)-5-isoxazolyl]phenoxy]pyrimidine] | 100 | 100 | 100 | 100 | 85 | 90 | 95 | 100 | 80 | 90 | 100 | 100 |  |  |  |  |  |  |  |  | pest or weed control at 16 g/ha ([3]; Stellaria media, post-emergence, 16 g ai/ha, scale 0 to 100 (0 no effect, 100 complete control), read-out: Chickweed plant response rating): 50%; pest or weed control at 31 g/ha ([3]; Stellaria media, post-emergence, 31 g ai/ha, scale 0 to 100 (0 no effect, 100 complete control), read-out: Chickweed plant response rating): 80%; pest or weed control at 62 g/ha ([3]; Stellaria media, post-emergence, 62 g ai/ha, scale 0 to 100, 0 no effect, 100 complete control, read-out: Plant response rating, Chickweed): 80%; pest or weed control at 125 g/ha ([3]; Stellaria media, post-emergence, 125 g ai/ha, scale 0 to 100, 0 no effect, 100 complete control, read-out: Plant response rating, Chickweed): 90%; pest or weed control at 16 g/ha ([4]; Bassia scoparia, post-emergence, 16 g ai/ha, scale 0 to 100 (0 no effect, 100 complete control), read-out: Kochia plant response rating): 90%; pest or weed control at 31 g/ha ([4]; Bassia scoparia, post-emergence, 31 g ai/ha, scale 0 to 100 (0 no effect, 100 complete control), read-out: Kochia plant response rating): 100%; pest or weed control at 62 g/ha ([4]; Bassia scoparia, post-emergence, 62 g ai/ha, scale 0 to 100, 0 no effect, 100 complete control, read-out: Plant response rating, Kochia): 100%; pest or weed control at 125 g/ha ([4]; Bassia scoparia, post-emergence, 125 g ai/ha, scale 0 to 100, 0 no effect, 100 complete control, read-out: Plant response rating, Kochia): 100%; pest or weed control at 16 g/ha ([5]; Avena fatua, post-emergence, 16 g ai/ha, scale 0 to 100 (0 no effect, 100 complete control), read-out: Oat, Wild plant response rating): 5%; pest or weed control at 31 g/ha ([5]; Avena fatua, post-emergence, 31 g ai/ha, scale 0 to 100 (0 no effect, 100 complete control), read-out: Oat, Wild plant response rating): 10%; pest or weed control at 62 g/ha ([5]; Avena fatua, post-emergence, 62 g ai/ha, scale 0 to 100, 0 no effect, 100 complete control, read-out: Plant response rating, Oat, Wild): 30%; pest or weed control at 125 g/ha ([5]; Avena fatua, post-emergence, 125 g ai/ha, scale 0 to 100, 0 no effect, 100 complete control, read-out: Plant response rating, Oat, Wild): 20%; Plant response rating, Waterhemp_RES1 ([6]; 8 g ai/ha Postemergence): 70; Plant response rating, Waterhemp_RES2 ([7]; 8 g ai/ha Postemergence): 70
2 | CC(F)(F)c1cc(-c2ccccc2Oc2ncc(Br)cn2)no1 [Compound 149] | 60 |  | 90 |  | 80 | 85 | 90 | 100 | 95 | 95 | 100 | 100 | 30 | 30 | 60 | 90 | 100 | 100 | 0 | 5 | Plant response rating, Blackgrass [1, 10]: 10; Plant response rating, Galium [2, 10]: 90; Chickweed plant response rating [3, 11]: 5; Plant response rating, Oat, Wild [5, 13]: 0
3 | Fc1ccc(Oc2ncc(Cl)cn2)c(-c2cc(C(F)(Cl)Cl)on2)c1 [Compound 221] | 60 |  | 100 |  | 85 | 95 | 100 | 98 | 90 | 98 | 95 | 100 | 85 | 80 | 100 | 100 | 100 | 100 | 10 | 35 | Plant response rating, Blackgrass [1, 10]: 30; Plant response rating, Galium [2, 10]: 90; Plant response rating (scale 0 to 100), Chickweed ([3]; 16 g ai/ha): 75; Plant response rating (scale 0 to 100), Kochia ([4]; 16 g ai/ha): 98; Plant response rating (scale 0 to 100), Oat, Wild ([5]; 16 g ai/ha): 5; Oat, Wild plant response rating [5, 13]: 10
4 | FC(F)c1cc(-c2c(Cl)cccc2Oc2ncc(Cl)cn2)no1 [Compound 179] | 80 | 100 | 100 | 100 | 90 | 90 | 100 | 100 | 95 | 100 | 100 | 100 | 80 | 95 | 95 | 100 | 100 | 100 | 5 | 20 | Plant response rating (scale 0 to 100), Chickweed ([3]; 16 g ai/ha): 70; Plant response rating (scale 0 to 100), Kochia ([4]; 16 g ai/ha): 90; Plant response rating (scale 0 to 100), Oat, Wild ([5]; 16 g ai/ha): 0; Oat, Wild plant response rating [5, 13]: 15
5 | FC(F)c1cc(-c2ccccc2Oc2ncc(Br)cn2)on1 [Compound 212] | 50 |  | 100 |  | 70 | 80 | 95 | 98 | 70 | 95 | 98 | 100 | 30 | 30 | 80 | 100 | 100 | 100 | 0 | 10 | Plant response rating, Blackgrass [1, 10]: 10; Plant response rating, Galium [2, 10]: 60; Plant response rating (scale 0 to 100), Chickweed ([3]; 16 g ai/ha): 10; Plant response rating (scale 0 to 100), Kochia ([4]; 16 g ai/ha): 90; Plant response rating (scale 0 to 100), Oat, Wild ([5]; 16 g ai/ha): 0; Oat, Wild plant response rating [5, 13]: 5
6 | Cc1cc(-c2ccccc2Oc2ncc(Cl)cn2)on1 [Compound 58] | 70 | 90 | 100 | 100 | 20 | 65 | 70 | 75 | 60 | 70 | 75 | 80 | 10 | 15 | 30 | 50 | 60 | 80 | 0 | 0 | Chickweed plant response rating [3, 11]: 5; Kochia plant response rating [4, 11]: 35; Oat, Wild plant response rating [5, 11]: 0; Plant response rating, Oat, Wild [5, 13]: 0; Plant response rating, Waterhemp_RES1 ([6]; 8 g ai/ha Postemergence): 10; Plant response rating, Waterhemp_RES2 ([7]; 8 g ai/ha Postemergence): 65
